# Laboratory results taken from patent EP2649983A1, “Compounds which inhibit neuronal exocytosis (II)” (Lipotec, S.A., priority 2012, dated 2013).
# Residues, ends and D or L forms follow the SMILES beside them. No end group written: not given here. *: point of attachment. Palmitoyl = CCCCCCCCCCCCCCCC(=O)*; NHhexadecyl = CCCCCCCCCCCCCCCCN*; Myristoyl = CCCCCCCCCCCCCC(=O)*
# Assays:
# SNARE complex [1] = experiment: Inhibition of SNARE complex formation (competition versus SNAP-25), complex detected by ELISA; type: binding
# Protocol: With the aim of determining the capacity of inhibition of the SNARE complex formation by the compounds of the invention, the competitive inhibition of the compounds compared to SNAP-25 was studied with regards to the formation of this complex. The proportion of SNARE complex formed was determined by the ELISA technique, using one of the proteins from the complex bound to GST. In a 96-well plate VAMP was immobilized (using a 0.037 µM solution) and subsequently the free spaces were blocked with BSA (3%). Parallel to this process, SNAP-25 bound to GST (0.0185 µM), syntaxin (0.037 µM) and a compound of the invention (2.5 mM and 0.5 mM compounds) were incubated for 1 hour. After incubation, the samples were transferred to the plate with immobilized VAMP and were incubated for 1 hour to allow the formation of the SNARE complex. Afterward, the plate was washed and the complex was detected by a primary antibody anti-GST (Antibody anti-GST epitope TAG, Fisher Cat. no:PA1-982A). The reading was carried out at a wavelength of 490 nm in a TECAN GENios spectrophotometric reader.
# Table 4 showns the results of the competitive inhibition of the formation of the SNARE complex by the compounds of the invention versus SNAP-25. The percentage of inhibition of the formation of the complex is inversely proportional to the quantity of SNARE complex spectrophotometrically detected.
# SNARE complex [2] = experiment: Inhibition of SNARE complex formation, complex detected by electrophoresis (SDS-PAGE); type: binding
# Protocol: VAMP (6 µM), syntaxin (6 µM) and the compound of the invention (5 mM or 1 mM compounds) were incubated for 3 hours. Subsequently, SNAP-25 (0.6 µM) was added and the mixture was incubated for an additional 15 hours to allow the formation of the SNARE complex. After incubation, the loading buffer (Laemli Simple Buffer) was added and the mixture was analyzed by 10% acrylamide SDS-PAGE in gel. The amount of complex was determined by MediaCybernetics image analysis software Image-Pro Plus.
# The percentage of inhibition of the formation of the complex is inversely proportional to the quantity of SNARE complex detected.
# [3] = tested on: human neuroblastoma cell line; experiment: Release of noradrenaline induced by TPA/ionomycin in a neuroblastoma cell line, quantified by ELISA; type: cell-based; details: 60 minutes pre-incubation, TPA/ION = 100.00
# Protocol: The induction of the release of noradrenaline with TPA (12-O-tetradecanoylphorbol-13-acetate)/lonomycin enables direct measurement of neuronal exocytosis. For the study of the inhibitory effect of the compounds of the invention on the release of noradrenaline, cells of a human neuroblastoma cell line were pre-incubated (1x10^6 cells/well) for 60 minutes with the compound of the invention (1 µM, 10 µM, 100 µM, 500 µM or 1 mM compounds), and afterward the release of noradrenaline was induced. The release of the noradrenaline neurotransmitter was induced by an 8 minute pretreatment with a solution of 12-O-tetradecanoylphorbol-13-acetate (TPA) 100 nM, which mobilized the intracellular vesicles which contained the neurotransmitter; followed by a 5 minute incubation with TPA/lonomycin (100 nM/10 µM), which induced the release of the neurotransmitter contained in these vesicles. […] For this, absorbance at 405 nm was measured in Thermo Scientific Multiskan Ascent equipment.
# The blocking of the SNARE complex by the compounds of the invention lead to an inhibition of neuronal exocytosis and therefore, a decrease in the levels of released noradrenaline (Table 6).
# [4] = concentration of compound 2.5 mM
# [5] = concentration of compound 0.5 mM
molecule,measurement,setting,value
CCCCCCCCCCCCCCCC(=O)N[C@@H](CCC(N)=O)C(=O)N[C@@H](Cc1c[nH]cn1)C(=O)N[C@@H](CC(C)C)C(=O)N[C@@H](Cc1c[nH]cn1)C(=O)N[C@@H](CC(N)=O)C(=O)N[C@H](C(=O)N[C@@H](CCSC)C(N)=O)C(C)C [Palm-SEQ ID NO:3-NH2] (Palmitoyl-QHLHNVM-NH2),% inhibition formation SNARE complex,SNARE complex [1]; [4],51%
Ac-EHLKQWM [Ac-SEQ ID NO:1-OH],% inhibition formation SNARE complex,SNARE complex [1]; [5],29%
CCCCCCCCCCCCCCCC(=O)N[C@@H](CC(=O)O)C(=O)N[C@@H](Cc1c[nH]cn1)C(=O)N[C@@H](Cc1ccccc1)C(=O)N[C@@H](CC(C)C)C(=O)N[C@@H](CC(=O)O)C(=O)N[C@@H](Cc1c[nH]c2ccccc12)C(=O)N[C@@H](CCSC)C(N)=O [Palm-SEQ ID NO:25-NH2] (Palmitoyl-DHFLDWM-NH2),% inhibition formation SNARE complex,SNARE complex [1]; [4],53%
same,% inhibition formation SNARE complex,SNARE complex [2]; concentration of compound 1 mM,36%
Ac-DHFQQRM-NH2 [Ac-SEQ ID NO:24-NH2],% RELEASED NORADRENALINE Average,[3]; 1 µM,90.63%
same,% RELEASED NORADRENALINE Average,[3]; 10 µM,97.06%
same,% RELEASED NORADRENALINE Average,[3]; 100 µM,88.95%
same,% RELEASED NORADRENALINE Average,[3]; 500 µM,78.11%
same,% RELEASED NORADRENALINE Average,[3]; 1000 µM,67.90%
CCCCCCCCCCCCCCCCNC(=O)[C@H](CCSC)NC(=O)[C@H](Cc1c[nH]c2ccccc12)NC(=O)[C@H](CCCNC(=N)N)NC(=O)[C@H](CCCCN)NC(=O)[C@H](CC(C)C)NC(=O)[C@H](CC(=O)O)NC(=O)[C@H](CCC(=O)O)NC(C)=O [Ac-SEQ ID NO:14-NH-(CH2)15-CH3] (Ac-EDLKRWM-NHhexadecyl),% inhibition formation SNARE complex,SNARE complex [1]; [4],35%
EHLKQWM-NH2 [H-SEQ ID NO:1-NH2],% inhibition formation SNARE complex,SNARE complex [1]; [5],30%
same,% inhibition formation SNARE complex,SNARE complex [1]; [4],58%
CCCCCCCCCCCCCC(=O)N[C@@H](CC(N)=O)C(=O)N[C@@H](Cc1c[nH]cn1)C(=O)N[C@@H](Cc1ccccc1)C(=O)N[C@@H](CC(C)C)C(=O)N[C@@H](CC(N)=O)C(=O)N[C@@H](Cc1c[nH]c2ccccc12)C(=O)N[C@@H](CCSC)C(N)=O [Myr-SEQ ID NO:15-NH2] (Myristoyl-NHFLNWM-NH2),% inhibition formation SNARE complex,SNARE complex [2]; concentration of compound 1 mM,23%
same,% inhibition formation SNARE complex,SNARE complex [2]; concentration of compound 5 mM,76%
CCCCCCCCCCCCCCCC(=O)N[C@@H](CCC(=O)O)C(=O)N[C@@H](CC(=O)O)C(=O)N[C@@H](CC(C)C)C(=O)N[C@@H](CCCCN)C(=O)N[C@@H](CCCNC(=N)N)C(=O)N[C@@H](Cc1c[nH]c2ccccc12)C(=O)N[C@@H](CCSC)C(N)=O [Palm-SEQ ID NO:14-NH2] (Palmitoyl-EDLKRWM-NH2),% inhibition formation SNARE complex,SNARE complex [2]; concentration of compound 5 mM,93%
Ac-EDLKRWM-NH2 [Ac-SEQ ID NO:14-NH2],% RELEASED NORADRENALINE Average,[3]; 10 µM,84.96%
same,% RELEASED NORADRENALINE Average,[3]; 100 µM,85.97%
same,% RELEASED NORADRENALINE Average,[3]; 1000 µM,45.78%
Ac-DHFLDWM-NH2 [Ac-SEQ ID NO:25-NH2],% RELEASED NORADRENALINE Average,[3]; 1 µM,99.59%
same,% RELEASED NORADRENALINE Average,[3]; 10 µM,94.48%
same,% RELEASED NORADRENALINE Average,[3]; 100 µM,74.79%
same,% RELEASED NORADRENALINE Average,[3]; 500 µM,48.07%
same,% RELEASED NORADRENALINE Average,[3]; 1000 µM,41.05%
CCCCCCCCCCCCCCCC(=O)N[C@@H](CC(=O)O)C(=O)N[C@@H](Cc1c[nH]cn1)C(=O)N[C@@H](Cc1ccccc1)C(=O)N[C@@H](CCC(N)=O)C(=O)N[C@@H](CCC(N)=O)C(=O)N[C@@H](CCCNC(=N)N)C(=O)N[C@@H](CCSC)C(N)=O [Palm-SEQ ID NO:24-NH2] (Palmitoyl-DHFQQRM-NH2),% inhibition formation SNARE complex,SNARE complex [1]; [5],36%
same,% inhibition formation SNARE complex,SNARE complex [2]; concentration of compound 1 mM,17%
same,% inhibition formation SNARE complex,SNARE complex [2]; concentration of compound 5 mM,66%
CCCCCCCCCCCCCCCC(=O)N[C@@H](CCC(=O)O)C(=O)N[C@@H](Cc1c[nH]cn1)C(=O)N[C@@H](CC(C)C)C(=O)N[C@@H](CCCCN)C(=O)N[C@@H](CCC(N)=O)C(=O)N[C@@H](Cc1c[nH]c2ccccc12)C(=O)N[C@@H](CCSC)C(N)=O [Palm-SEQ ID NO:1-NH2] (Palmitoyl-EHLKQWM-NH2),% inhibition formation SNARE complex,SNARE complex [1]; [5],21%
same,% inhibition formation SNARE complex,SNARE complex [1]; [4],47%
CCCCCCCCCCCCCCCC(=O)N[C@@H](CC(N)=O)C(=O)N[C@@H](Cc1c[nH]cn1)C(=O)N[C@@H](Cc1ccccc1)C(=O)N[C@@H](CC(C)C)C(=O)N[C@@H](CC(N)=O)C(=O)N[C@@H](Cc1c[nH]c2ccccc12)C(=O)N[C@@H](CCSC)C(N)=O [Palm-SEQ ID NO:15-NH2] (Palmitoyl-NHFLNWM-NH2),% inhibition formation SNARE complex,SNARE complex [1]; [4],21%
same,% inhibition formation SNARE complex,SNARE complex [2]; concentration of compound 1 mM,22%
same,% inhibition formation SNARE complex,SNARE complex [2]; concentration of compound 5 mM,74%
CCCCCCCCCCCCCCCC(=O)N[C@@H](CC(=O)O)C(=O)N[C@@H](Cc1c[nH]cn1)C(=O)N[C@@H](Cc1ccccc1)C(=O)N[C@@H](CC(C)C)C(=O)N[C@@H](CC(N)=O)C(=O)N[C@@H](Cc1c[nH]c2ccccc12)C(=O)N[C@@H](CCSC)C(N)=O [Palm-SEQ ID NO:34-NH2] (Palmitoyl-DHFLNWM-NH2),% inhibition formation SNARE complex,SNARE complex [1]; [4],51%
Ac-EHLKQWM-NH2 [Ac-SEQ ID NO:1-NH2],% RELEASED NORADRENALINE Average,[3]; 1 µM,96.14%
same,% RELEASED NORADRENALINE Average,[3]; 10 µM,93.07%
same,% RELEASED NORADRENALINE Average,[3]; 100 µM,79.59%
same,% RELEASED NORADRENALINE Average,[3]; 500 µM,49.08%
same,% RELEASED NORADRENALINE Average,[3]; 1000 µM,42.48%
